A value given as a limit tells only on which side of the number the result lay.

In article PMC10814857, “Functional Classification and Interaction Selectivity Landscape of the Human SH3 Domain Superfamily” (Cells, 2024) one finds Kd data, which are given here for one compound.

Holding throughout (test): Fluorescence polarization SH3 domain-PRP binding
What all share (conditions): FP, 0.2 µM fluorescein-labeled peptide, SH3 domain 0-200 µM, Tris/HCl pH 7.5, 25 °C, quadratic fit

The target of assay [1] is T1, ABI1 SH3 domain (aa 446-505) (Homo sapiens, UniProt Q8IZP0).
T1 construct: 446-505; GST (N); made in house; host or cells: Escherichia coli CodonPlus, Rosetta, BL21(DE3)
How it is done: (§1) The interaction between fluorescein-labeled proline-rich peptides (0.2 µM) and increasing concentrations of SH3 domains (ranging from 0 to 200 µM) was measured in a buffer (containing 30 mM Tris/HCl (pH 7.5), 5 mM MgCl2, and 3 mM DTT at 25 °C) in a total volume of 200 µL using a Fluoromax 4 fluorimeter in polarization mode and a quartz glass fluorescence cuvette (Hellma Ultra-Micro Cuvette 105.250-QS, Thermo Fisher Scientific, Waltham, MA USA). Excitation was performed at 470 nm and emission was measured at 560 nm. Dissociation constants (Kd) were determined by fitting the concentration-dependent binding curve to a quadratic ligand binding equation.
(§2) Fluorescence polarization measurements were performed to determine the binding affinities of SH3 domain–PRP interaction pairs from the dot blot analysis. SH3 proteins were titrated at increasing concentrations against fluorescent PRPs, which were kept at a constant concentration of 0.2 µM. GRB2-2^W193K, which is defective in the binding of PRPs such as RP1, was used as a negative control as previously described. […] The resulting data (Figure S6) allowed the evaluation of equilibrium dissociation constants (Kd) for 45 interactions between the SH3 domains and the PRPs (Figure 2B; Table S6).
(§3) Figure S6. Interactions of the SH3 domains with fluorescent PRPs measured by fluorescence polarization.
(§4) Fluorescent peptides (0.2 µM) were titrated with increasing concentrations of the corresponding SH3 domains.
(§5) GRB2-2W193K, defective in the binding of PRPs such as RP1, was used as a negative control as previously described. The x-axis represents SH3 domain concentrations as GST fusion proteins in µM, while the y-axis represents fluorescence polarization. The equilibrium dissociation constants (Kd) for the respective measurements were determined by fitting the titration curves to a quadratic ligand-binding equation (solid lines). All Kd values are […]
(§6) Error bars are derived from the fitting errors.
(§7) (1 picture or pasted object on this page, not shown here)

Assay [2] has as its target T2, ABL2 SH3 domain (aa 107-167) (Homo sapiens, UniProt P42684).
T2 construct: 107-167; GST (N); made in house; host or cells: Escherichia coli CodonPlus, Rosetta, BL21(DE3)
How it is done:
as §1, §2, §3, §4, §5, §6, §7

For assay [3], the target named is T3, ARHGAP12 SH3 domain (aa 12-74) (Homo sapiens, UniProt Q8IWW6).
T3 construct: 12-74; GST (N); made in house; host or cells: Escherichia coli CodonPlus, Rosetta, BL21(DE3)
T3 sequence (Q8IWW6 12-74): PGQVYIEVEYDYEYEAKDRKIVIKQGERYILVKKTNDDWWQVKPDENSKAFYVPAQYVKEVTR
How it is done: as §1, §2, §3, §4, §5, §6, §7

Assay [4] deals with T4, ARHGEF30 (OBSCN) SH3 domain (aa 5600-5667) (Homo sapiens, UniProt Q5VST9).
T4 construct: 5600-5667; GST (N); made in house; host or cells: Escherichia coli CodonPlus, Rosetta, BL21(DE3)
T4 sequence (Q5VST9 5600-5667): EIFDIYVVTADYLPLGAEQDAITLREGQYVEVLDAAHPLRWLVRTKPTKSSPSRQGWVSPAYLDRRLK
How it is done: as §1, §2, §3, §4, §5, §6, §7

For assay [5], the target named is T5, BIN1 SH3 domain (aa 520-593) (Homo sapiens, UniProt O00499).
T5 construct: 520-593; GST (N); made in house; host or cells: Escherichia coli CodonPlus, Rosetta, BL21(DE3)
T5 sequence (O00499 520-593): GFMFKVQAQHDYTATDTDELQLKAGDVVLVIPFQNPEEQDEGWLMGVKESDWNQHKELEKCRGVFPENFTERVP
How it is done:
as §1, §2, §3, §4, §5, §6, §7

The target of assay [6] is T6, CRK-1 SH3 domain (aa 132-192) (Homo sapiens, UniProt P46108).
T6 construct: 132-192; GST (N); made in house; host or cells: Escherichia coli CodonPlus, Rosetta, BL21(DE3)
How it is done:
as §1, §2, §3, §4, §5, §6, §7

Assay [7] addresses T7, DLG2 SH3 domain (aa 536-606) (Homo sapiens, UniProt Q15700).
T7 construct: 536-606; GST (N); made in house; host or cells: Escherichia coli CodonPlus, Rosetta, BL21(DE3)
T7 sequence (Q15700 536-606): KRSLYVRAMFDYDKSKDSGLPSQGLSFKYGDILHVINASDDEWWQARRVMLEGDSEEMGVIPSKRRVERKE
How it is done: as §1, §2, §3, §4, §5, §6, §7

Assay [8] deals with T8, GRB2-1 SH3 domain (aa 1-58) (Homo sapiens, UniProt P62993).
T8 construct: 1-58; GST (N); made in house; host or cells: Escherichia coli CodonPlus, Rosetta, BL21(DE3)
How it is done:
as §1, §2, §3, §4, §5, §6, §7

For assay [9], the target named is T9, GRB2-2 SH3 domain (aa 158-215) (Homo sapiens, UniProt P62993).
T9 construct: 158-215; GST (N); made in house; host or cells: Escherichia coli CodonPlus, Rosetta, BL21(DE3)
How it is done: as §1, §2, §3, §4, §5, §6, §7

Assay [10] deals with T10, ITSN1-1 SH3 domain (aa 740-806) (Homo sapiens, UniProt Q15811).
T10 construct: 740-806; GST (N); made in house; host or cells: Escherichia coli CodonPlus, Rosetta, BL21(DE3)
T10 sequence (Q15811 740-806): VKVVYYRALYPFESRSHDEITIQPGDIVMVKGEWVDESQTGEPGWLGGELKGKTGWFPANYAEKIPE
How it is done:
as §1, §2, §3, §4, §5, §6, §7

The target of assay [11] is T11, ITSN1-2 SH3 domain (aa 913-971) (Homo sapiens, UniProt Q15811).
T11 construct: 913-971; GST (N); made in house; host or cells: Escherichia coli CodonPlus, Rosetta, BL21(DE3)
T11 sequence (Q15811 913-971): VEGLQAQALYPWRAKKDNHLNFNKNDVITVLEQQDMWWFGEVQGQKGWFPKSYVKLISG
How it is done:
as §1, §2, §3, §4, §5, §6, §7

Assay [12] addresses T12, ITSN1-3 SH3 domain (aa 1002-1060) (Homo sapiens, UniProt Q15811).
T12 construct: 1002-1060; GST (N); made in house; host or cells: Escherichia coli CodonPlus, Rosetta, BL21(DE3)
T12 sequence (Q15811 1002-1060): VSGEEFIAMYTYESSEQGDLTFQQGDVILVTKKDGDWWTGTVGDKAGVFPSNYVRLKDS
How it is done:
as §1, §2, §3, §4, §5, §6, §7

T6 sequence (P46108 132-192): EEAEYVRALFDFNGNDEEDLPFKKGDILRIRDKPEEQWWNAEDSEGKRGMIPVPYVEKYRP
T9 sequence (P62993 158-215): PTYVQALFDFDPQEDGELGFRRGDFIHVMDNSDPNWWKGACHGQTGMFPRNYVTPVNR
T2 sequence (P42684 107-167): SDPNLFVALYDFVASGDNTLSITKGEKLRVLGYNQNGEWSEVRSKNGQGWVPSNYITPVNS
T8 sequence (P62993 1-58): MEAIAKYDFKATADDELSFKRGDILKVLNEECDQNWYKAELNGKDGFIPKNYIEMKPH
T1 sequence (Q8IZP0 446-505): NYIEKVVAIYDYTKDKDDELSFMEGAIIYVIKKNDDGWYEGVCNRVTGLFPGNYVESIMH

What is called Kd is the constant that tells how readily two partners part at equilibrium. Take `CC(C)[C@H](N)C(=O)N1CCC[C@H]1C(=O)N[C@H](C(=O)N1CCC[C@H]1C(=O)N1CCC[C@H]1C(=O)N1CCC[C@H]1C(=O)N[C@H](C(=O)N1CCC[C@H]1C(=O)N1CCC[C@H]1C(=O)N[C@@H](CCCNC(=N)N)C(=O)N[C@@H](CCCNC(=N)N)C(=O)N[C@@H](CCCNC(=N)N)C(=O)O)C(C)C)C(C)C` [RP1, reference compound]: the Kd in [1] is above 200 µM; in [2], 11 µM; in assay [3], 16.7 µM; in assay [4], above 200 µM; in assay [5], above 200 µM; in [6], above 200 µM. Further, the Kd was above 200 µM in assay [7]; 11 µM in assay [8]; 3.4 µM in assay [9]; 39 µM in assay [10]; above 200 µM in [11]; above 200 µM in assay [12].
